Where a SMILES comes first, the peptide text is derived from it. [ ]: non-standard residue; d: D form. The star is where a group is joined. DOTA = O=C(O)CN1CCN(CC(=O)O)CCN(CC(=O)*)CCN(CC(=O)O)CC1; Aib = CC(C)(N)C(=O)O
Assays:
[1] = Chemical stability testing of peptides in solution (UHPLC); type: physicochemical; settings: 0.5 mg/mL, pH 7.3 TRIS buffer
Experimental: For chemical stability testing, the target concentration was 0.5 mg/mL pure compound in a pH 7.3 TRIS buffer (50 mM) containing m-cresol (30 mM), sodium chloride (85 mM) and polysorbate 20 (8 μM). The solution was stored for 7 days at 4° C., or 40° C. After that time, the solution was analysed by UHPLC (Analytical UHPLC Method D).
The “% Purity” after 7 days is defined by the % Relative purity at day 7 in relation to the % Relative purity at t0 following the equation
% Purity=[(% Relative purity t7)×100)]/% Relative purity t0
The % Relative purity at t0 was calculated by dividing the peak area of the peptide at t0 by the sum of all peak areas at t0 following the equation
% Relative purity t0=[(peak area t0)×100]/sum of all peak areas t0
Likewise, the % relative purity t7 was calculated by dividing the peak are of the peptide at t7 by the sum of all peak areas at t7 following the equation
% Relative purity t7=[(peak area t7)×100]/sum of all peak areas t7
Chemical stability of peptidic compounds was assessed as described in Methods.

[2] = molecular target: human GLP-1 receptor (hGLP-1R) (Homo sapiens, UniProt P43220); assay: cAMP response (HTRF) in PSC-HEK-293 cells expressing human GLP-1 receptor; type: cell-based
human GLP-1 receptor (hGLP-1R), sequence (P43220 24-463): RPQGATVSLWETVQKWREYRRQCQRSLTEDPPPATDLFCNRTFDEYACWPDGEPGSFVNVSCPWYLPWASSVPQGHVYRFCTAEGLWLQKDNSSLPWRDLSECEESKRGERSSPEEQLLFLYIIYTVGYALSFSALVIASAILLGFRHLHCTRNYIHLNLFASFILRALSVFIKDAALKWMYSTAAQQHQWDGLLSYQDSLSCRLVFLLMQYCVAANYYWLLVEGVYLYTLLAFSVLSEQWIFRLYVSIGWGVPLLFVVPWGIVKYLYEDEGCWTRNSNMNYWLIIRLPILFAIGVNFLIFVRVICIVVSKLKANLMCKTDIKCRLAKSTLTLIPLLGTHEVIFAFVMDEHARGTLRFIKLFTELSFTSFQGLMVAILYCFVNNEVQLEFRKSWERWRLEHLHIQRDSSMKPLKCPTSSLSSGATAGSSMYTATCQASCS
Experimental: (§1) Each vial contained 1.8 ml cells. The vials were slowly frozen to −80° C. in isopropanol, and then transferred in liquid nitrogen for storage.
(§2) Prior to their use, frozen cells were thawed quickly at 37° C. and washed (5 min at 900 rpm) with 20 ml cell buffer (lx HBSS; 20 mM HEPES, with 0.1% BSA).
(§3) For measurement of cAMP generation, 5 μl cells (final 5000 cells/well) and 5 μl of test compound were added to a 384-well plate, followed by incubation for 30 min at room temperature.
(§4) The cAMP generated was determined using a kit from Cisbio Corp. based on HTRF (Homogenous Time Resolved Fluorescence). The cAMP assay was performed according to manufacturer's instructions (Cisbio).
(§5) cAMP content of cells was determined using a kit from Cisbio Corp. (cat. no. 62AM4PEC) based on HTRF (Homogenous Time Resolved Fluorescence). […] Medium was then removed and cells washed with PBS lacking calcium and magnesium, followed by proteinase treatment with accutase (Sigma-Aldrich cat. no. A6964). Detached cells were washed and resuspended in assay buffer (1×HBSS; 20 mM HEPES, 0.1% BSA, 2 mM IBMX) and cellular density determined. They were then diluted to 400000 cells/ml and 25 μl-aliquots dispensed into the wells of 96-well plates. For measurement, 25 μl of test compound in assay buffer was added to the wells, followed by incubation for 30 minutes at room temperature.

[3] = molecular target: T1, glucagon receptor (hGCGR) (Homo sapiens, UniProt P47871); assay: cAMP response (HTRF) in PSC-HEK-293 cells expressing human glucagon receptor; type: cell-based
T1 construct: expressed in transfected cells
T1 sequence (P47871 26-477): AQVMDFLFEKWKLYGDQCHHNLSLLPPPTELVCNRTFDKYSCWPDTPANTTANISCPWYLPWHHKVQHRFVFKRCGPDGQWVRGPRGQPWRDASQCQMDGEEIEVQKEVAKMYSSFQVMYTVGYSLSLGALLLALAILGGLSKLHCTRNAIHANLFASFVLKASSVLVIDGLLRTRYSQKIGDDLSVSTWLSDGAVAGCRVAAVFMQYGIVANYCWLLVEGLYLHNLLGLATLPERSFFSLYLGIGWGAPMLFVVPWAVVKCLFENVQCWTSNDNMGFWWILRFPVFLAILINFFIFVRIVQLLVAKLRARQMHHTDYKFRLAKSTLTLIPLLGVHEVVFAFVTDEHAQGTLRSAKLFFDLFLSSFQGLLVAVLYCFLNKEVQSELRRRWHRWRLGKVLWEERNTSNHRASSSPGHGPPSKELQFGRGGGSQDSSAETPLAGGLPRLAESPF
Experimental: as §1, §2, §3, §4, §5

Experimental for physchem: Depending on the presence of remaining material as judged by visual inspection the compounds were determined to be soluble at the target concentration in the respective buffer system.
Solubility buffer system A) 100 mM Phosphate buffer pH 7.4
Solubility buffer system B) Acetate buffer pH 4.5
Solubility buffer system C) 100 mM Histidine buffer pH 5.5
Solubility buffer system D) 10 mM Glycine pH 2.5
Solubility buffer system E) 10 mM Glycine pH 2.0
Solubility buffer system F) 50 mM TRIS buffer, 30 mM m-cresol, 85 mM sodium chloride, 8 μM polysorbate 20 pH 7.3
Peptide samples were prepared in the respective solubility buffer system and solubility was assessed as described in Methods.

## CC[C@H](C)[C@H](NC(=O)[C@H](CO)NC(=O)[C@H](CC(C)C)NC(=O)[C@H](CC(=O)O)NC(=O)[C@H](CO)NC(=O)[C@@H](NC(=O)[C@H](Cc1ccccc1)NC(=O)[C@@H](NC(=O)CNC(=O)[C@H](CCC(=O)O)NC(=O)C(C)(C)NC(=O)[C@@H](N)Cc1ccc(O)cc1)[C@@H](C)O)[C@@H](C)CC)C(=O)N[C@@H](C)C(=O)N[C@@H](CC(C)C)C(=O)N[C@@H](CC(=O)O)C(=O)N[C@@H](CCCNC(=N)N)C(=O)N[C@H](C(=O)N[C@@H](Cc1c[nH]cn1)C(=O)N[C@@H](CCC(N)=O)C(=O)N[C@@H](CCC(=O)O)C(=O)N[C@@H](CCC(=O)O)C(=O)N[C@@H](Cc1ccccc1)C(=O)N[C@H](C(=O)N[C@@H](CCC(=O)O)C(=O)N[C@@H](Cc1c[nH]c2ccccc12)C(=O)N[C@@H](CC(C)C)C(=O)N[C@@H](CC(C)C)C(=O)N[C@@H](C)C(=O)NCC(=O)NCC(=O)N[C@@H](CCCCNC(=O)CN1CCN(CC(=O)O)CCN(CC(=O)O)CCN(CC(=O)O)CC1)C(N)=O)[C@@H](C)CC)[C@@H](C)CC [SEQ ID NO: 3, Y-Aib-EGTFISDLSIALDRIHQEEFIEWLLAGGK(DOTA)-NH2] (H-Y[Aib]EGTFISDLSIALDRIHQEEFIEWLLAGGK(DOTA)-NH2; N-terminus assumed)
[1]; 4° C.
  % Purity after 7 days: >97%
[1]; 40° C.
  % Purity after 7 days: >97%
[2]
  EC50: > 10 nM
physchem; 10 mM glycine buffer, pH 2
  solubility: ≥ 500 µg/mL
physchem; 10 mM glycine buffer, pH 2.5
  solubility: ≥ 500 µg/mL
physchem; 100 mM histidine buffer, pH 5.5
  solubility: ≥ 500 µg/mL
physchem; 100 mM phosphate buffer, pH 7.4
  solubility: ≥ 500 µg/mL
physchem; acetate buffer, pH 4.5
  solubility: < 500 µg/mL
physchem; pH 7.3
  solubility: ≥ 500 µg/mL
[3]
  EC50: > 10 nM
